Results as given in patent US20050239656A1, “Pyridine compounds or salts thereof and herbicides containing the same” (priority 2002, published 2005).

These compounds were tested on corn (assay: Test Example 2: soil surface treatment, upland pot test). Conditions: active ingredient 250 g/ha, observed 20th to 28th day.
Assay type: in vivo, Zea mays L.
Text: (§1) Upland field soil was put into a 1/170,000 ha pot, and seed of various plants (barnyardgrass, crabgrass, green foxtail, redroot pigweed, prickly sida, velvetleaf, rice, wheat, corn, soybean) were sown. On the 1st day after the sowing, a wettable powder or emulsifiable concentrate having the compound of the present invention formulated in accordance with a usual formulation method, was weighed so that the active ingredient would be a predetermined amount, and diluted with water in an amount of 1,500 L/ha. The herbicide thus adjusted was applied by a small size sprayer for soil surface treatment. On the 20th to 28th days after the application of the herbicide, the growth of the respective plants was visually observed, and the herbicidal effects were evaluated by the growth controlling degrees (%) ranging from 0 (equivalent to the non-treated plot) to 100 (complete kill), whereby the results shown in Table 4, were obtained.

With CC(C)C(c1cnccc1C(F)(F)F)N(C)C(=O)Cc1ccc(Cl)cc1 (stereo not shown) [I-23] as the compound, how does the “Growth controlling degree (%) Corn” value read?
Its value is 10%.

CC(C)C(c1cnccc1C(F)(F)F)N(C)C(=O)Cc1ccccc1F (stereo not shown) [Compound I-25] was tested. Which “Growth controlling degree (%) Corn” value did it give?
Its value is 20%.

Same assay, conditions: active ingredient 500 g/ha, observed 20th to 28th day

With Cc1ccc(OCC(=O)N(C)C(c2cnccc2C(F)(F)F)C(C)C)cc1 (stereo not shown) [Compound I-239] as the compound, how does the “Growth controlling degree (%) Corn” value read?
Its value is 10%.

What follows are compounds tested on prickly sida in the same assay as above. Conditions: active ingredient 250 g/ha, observed 20th to 28th day.
Assay type: in vivo, Sida spinosa L.
Text: as §1

Which “Growth controlling degree (%) Prickly sida” value does the source give for CC(C)C(c1cnccc1C(F)(F)F)N(C)C(=O)Cc1ccc(Cl)cc1 (stereo not shown) [I-23] here?
The value was 98%.

With CC(C)C(c1cnccc1C(F)(F)F)N(C)C(=O)Cc1ccccc1F (stereo not shown) [Compound I-25] as the compound, how does the “Growth controlling degree (%) Prickly sida” value read?
Its value is 100%.

Same assay, conditions: active ingredient 500 g/ha, observed 20th to 28th day

Which “Growth controlling degree (%) Prickly sida” value does the source give for Cc1ccc(OCC(=O)N(C)C(c2cnccc2C(F)(F)F)C(C)C)cc1 (stereo not shown) [Compound I-239] here?
Its value is 80%.

Each compound was assayed on soybean in the same assay as above. Conditions: active ingredient 250 g/ha, observed 20th to 28th day.
Assay type: in vivo, Glycine max Merr.
Text: as §1

CC(C)C(c1cnccc1C(F)(F)F)N(C)C(=O)Cc1ccc(Cl)cc1 (stereo not shown) [I-23] was tested. Which “Growth controlling degree (%) Soyabean” value did it give?
Its value is 20%.

How did the “Growth controlling degree (%) Soyabean” value turn out when CC(C)C(c1cnccc1C(F)(F)F)N(C)C(=O)Cc1ccccc1F (stereo not shown) [Compound I-25] was run?
The value was 10%.

Same assay, conditions: active ingredient 500 g/ha, observed 20th to 28th day

With Cc1ccc(OCC(=O)N(C)C(c2cnccc2C(F)(F)F)C(C)C)cc1 (stereo not shown) [Compound I-239] as the compound, how does the “Growth controlling degree (%) Soyabean” value read?
Its value is 10%.

Each compound was assayed on crabgrass in the same assay as above. Conditions: active ingredient 250 g/ha, observed 20th to 28th day.
Assay type: in vivo, Digitaria sanguinalis L.
Text: as §1

How did the “Growth controlling degree (%) Crabgrass” value turn out when CC(C)C(c1cnccc1C(F)(F)F)N(C)C(=O)Cc1ccc(Cl)cc1 (stereo not shown) [I-23] was run?
Its value is 98%.

Which “Growth controlling degree (%) Crabgrass” value does the source give for CC(C)C(c1cnccc1C(F)(F)F)N(C)C(=O)Cc1ccccc1F (stereo not shown) [Compound I-25] here?
Its value is 100%.

Same assay, conditions: active ingredient 500 g/ha, observed 20th to 28th day

How did the “Growth controlling degree (%) Crabgrass” value turn out when Cc1ccc(OCC(=O)N(C)C(c2cnccc2C(F)(F)F)C(C)C)cc1 (stereo not shown) [Compound I-239] was run?
Its value is 95%.

What follows are compounds tested on japanese bulrush (assay: Test Example 3: paddy pot test, application under submerged conditions). Conditions: active ingredient 250 g/ha; submerged application at 0.5 leaf stage; visually observed 14 days after application; 0 = non-treated, 100 = complete kill.
Assay type: in vivo, Scirpus juncoides
How it was run: (§2)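 Paddy soil pots; seeds sown, lightly covered; flooded 0.5–1 cm in greenhouse; wapato tubers planted day 1–2; flood raised to 3–4 cm. Submerged pipette application at 0.5 leaf / primary leaf stage. Visual score day 14, 0–100%.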

For Cc1ccc(OCC(=O)N(C)C(c2cnccc2C(F)(F)F)C(C)C)cc1 (stereo not shown) [Compound I-239], which “Growth controlling degree (%) Japanese bulrush” value is on record?
Its value is 98%.

Same assay, conditions: active ingredient 500 g/ha; submerged application at 0.5 leaf stage; visually observed 14 days after application; 0 = non-treated, 100 = complete kill

With CC(C)C(c1cnccc1C(F)(F)F)N(C)C(=O)Cc1ccc(Cl)cc1 (stereo not shown) [I-23] as the compound, how does the “Growth controlling degree (%) Japanese bulrush” value read?
The value was 90%.

How did the “Growth controlling degree (%) Japanese bulrush” value turn out when CC(C)C(c1cnccc1C(F)(F)F)N(C)C(=O)Cc1ccccc1F (stereo not shown) [Compound I-25] was run?
Its value is 98%.

These compounds were tested on japanese ribbon wapato in the same assay as above. Conditions: active ingredient 250 g/ha; submerged application at primary leaf stage; visually observed 14 days after application; 0 = non-treated, 100 = complete kill.
Assay type: in vivo, Sagittaria pygniaea
How it was run: as §2

With Cc1ccc(OCC(=O)N(C)C(c2cnccc2C(F)(F)F)C(C)C)cc1 (stereo not shown) [Compound I-239] as the compound, how does the “Growth controlling degree (%) Japanese ribbon wapato” value read?
Its value is 70%.

Same assay, conditions: active ingredient 500 g/ha; submerged application at primary leaf stage; visually observed 14 days after application; 0 = non-treated, 100 = complete kill

Which “Growth controlling degree (%) Japanese ribbon wapato” value does the source give for CC(C)C(c1cnccc1C(F)(F)F)N(C)C(=O)Cc1ccc(Cl)cc1 (stereo not shown) [I-23] here?
The value was 85%.

Which “Growth controlling degree (%) Japanese ribbon wapato” value does the source give for CC(C)C(c1cnccc1C(F)(F)F)N(C)C(=O)Cc1ccccc1F (stereo not shown) [Compound I-25] here?
Its value is 100%.

What follows are compounds tested on barnyardgrass (assay: Test Example 2: soil surface treatment, upland pot test). Conditions: active ingredient 250 g/ha, observed 20th to 28th day.
Assay type: in vivo, Echinochloa crus-galli L.
Text: as §1

With CC(C)C(c1cnccc1C(F)(F)F)N(C)C(=O)Cc1ccc(Cl)cc1 (stereo not shown) [I-23] as the compound, how does the “Growth controlling degree (%) Barnyardgrass” value read?
Its value is 95%.

With CC(C)C(c1cnccc1C(F)(F)F)N(C)C(=O)Cc1ccccc1F (stereo not shown) [Compound I-25] as the compound, how does the “Growth controlling degree (%) Barnyardgrass” value read?
Its value is 98%.

Same assay, conditions: active ingredient 500 g/ha, observed 20th to 28th day

For Cc1ccc(OCC(=O)N(C)C(c2cnccc2C(F)(F)F)C(C)C)cc1 (stereo not shown) [Compound I-239], which “Growth controlling degree (%) Barnyardgrass” value is on record?
Its value is 60%.

The compounds below were run on redroot pigweed in the same assay as above. Conditions: active ingredient 250 g/ha, observed 20th to 28th day.
Assay type: in vivo, Amaranthus retroflexus L.
Text: as §1

Which “Growth controlling degree (%) Redroot pigweed” value does the source give for CC(C)C(c1cnccc1C(F)(F)F)N(C)C(=O)Cc1ccc(Cl)cc1 (stereo not shown) [I-23] here?
Its value is 85%.

For CC(C)C(c1cnccc1C(F)(F)F)N(C)C(=O)Cc1ccccc1F (stereo not shown) [Compound I-25], which “Growth controlling degree (%) Redroot pigweed” value is on record?
The value was 100%.

Same assay, conditions: active ingredient 500 g/ha, observed 20th to 28th day

With Cc1ccc(OCC(=O)N(C)C(c2cnccc2C(F)(F)F)C(C)C)cc1 (stereo not shown) [Compound I-239] as the compound, how does the “Growth controlling degree (%) Redroot pigweed” value read?
The value was 70%.

The compounds below were run on rice (var. Nihonbare) (assay: Test Example 3: paddy pot test, transplanted rice). Conditions: active ingredient 250 g/ha, applied 4th day after transplantation, visually observed 21st day after application, 0 = non-treated, 100 = complete kill.
Assay type: in vivo, Oryza sativa L.
How it was run: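 Visual crop-injury rating (0 = as untreated, 100 = complete kill, %) taken 21 days post-application. Treatment: formulated compound, water-diluted, pipetted into 3–4 cm flood water at a preset active-ingredient dose, 4 days after transplanting 2-leaf Nihonbare rice 3 cm deep in puddled paddy soil.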

How did the “Growth controlling degree (%) Rice” value turn out when Cc1ccc(OCC(=O)N(C)C(c2cnccc2C(F)(F)F)C(C)C)cc1 (stereo not shown) [Compound I-239] was run?
Its value is 0%.

Same assay, conditions: active ingredient 500 g/ha, applied 4th day after transplantation, visually observed 21st day after application, 0 = non-treated, 100 = complete kill

With CC(C)C(c1cnccc1C(F)(F)F)N(C)C(=O)Cc1ccc(Cl)cc1 (stereo not shown) [I-23] as the compound, how does the “Growth controlling degree (%) Rice” value read?
Its value is 30%.

How did the “Growth controlling degree (%) Rice” value turn out when CC(C)C(c1cnccc1C(F)(F)F)N(C)C(=O)Cc1ccccc1F (stereo not shown) [Compound I-25] was run?
Its value is 30%.

Each compound was assayed on velvetleaf (assay: Test Example 2: soil surface treatment, upland pot test). Conditions: active ingredient 250 g/ha, observed 20th to 28th day.
Assay type: in vivo, Abutilon theophrasti MEDIC.
Text: as §1

For CC(C)C(c1cnccc1C(F)(F)F)N(C)C(=O)Cc1ccc(Cl)cc1 (stereo not shown) [I-23], which “Growth controlling degree (%) Velvetleaf” value is on record?
Its value is 60%.

For CC(C)C(c1cnccc1C(F)(F)F)N(C)C(=O)Cc1ccccc1F (stereo not shown) [Compound I-25], which “Growth controlling degree (%) Velvetleaf” value is on record?
Its value is 95%.

Same assay, conditions: active ingredient 500 g/ha, observed 20th to 28th day

How did the “Growth controlling degree (%) Velvetleaf” value turn out when Cc1ccc(OCC(=O)N(C)C(c2cnccc2C(F)(F)F)C(C)C)cc1 (stereo not shown) [Compound I-239] was run?
Its value is 30%.

What follows are compounds tested on green foxtail in the same assay as above. Conditions: active ingredient 250 g/ha, observed 20th to 28th day.
Assay type: in vivo, Setaria viridis L.
Text: as §1

For CC(C)C(c1cnccc1C(F)(F)F)N(C)C(=O)Cc1ccc(Cl)cc1 (stereo not shown) [I-23], which “Growth controlling degree (%) Green foxtail” value is on record?
The value was 98%.

CC(C)C(c1cnccc1C(F)(F)F)N(C)C(=O)Cc1ccccc1F (stereo not shown) [Compound I-25] was tested. Which “Growth controlling degree (%) Green foxtail” value did it give?
Its value is 100%.

Same assay, conditions: active ingredient 500 g/ha, observed 20th to 28th day

Which “Growth controlling degree (%) Green foxtail” value does the source give for Cc1ccc(OCC(=O)N(C)C(c2cnccc2C(F)(F)F)C(C)C)cc1 (stereo not shown) [Compound I-239] here?
Its value is 90%.

Each compound was assayed on barnyardgrass (assay: Test Example 3: paddy pot test, application under submerged conditions). Conditions: active ingredient 250 g/ha; submerged application at 0.5 leaf stage; visually observed 14 days after application; 0 = non-treated, 100 = complete kill.
Assay type: in vivo, Echinochloa crus-galli L.
How it was run: as §2

How did the “Growth controlling degree (%) Barnyardgrass” value turn out when Cc1ccc(OCC(=O)N(C)C(c2cnccc2C(F)(F)F)C(C)C)cc1 (stereo not shown) [Compound I-239] was run?
Its value is 98%.

The compounds below were run on rice (assay: Test Example 2: soil surface treatment, upland pot test). Conditions: active ingredient 250 g/ha, observed 20th to 28th day.
Assay type: in vivo, Oryza sativa L.
Text: as §1

For CC(C)C(c1cnccc1C(F)(F)F)N(C)C(=O)Cc1ccc(Cl)cc1 (stereo not shown) [I-23], which “Growth controlling degree (%) Rice” value is on record?
Its value is 0%.

CC(C)C(c1cnccc1C(F)(F)F)N(C)C(=O)Cc1ccccc1F (stereo not shown) [Compound I-25] was tested. Which “Growth controlling degree (%) Rice” value did it give?
Its value is 20%.

Same assay, conditions: active ingredient 500 g/ha, observed 20th to 28th day

For Cc1ccc(OCC(=O)N(C)C(c2cnccc2C(F)(F)F)C(C)C)cc1 (stereo not shown) [Compound I-239], which “Growth controlling degree (%) Rice” value is on record?
The value was 0%.
